Data as given in patent US20260274853A1, “BIFUNCTIONAL COMPOUNDS CONTAINING PYRIMIDINE DERIVATIVES FOR DEGRADING CYCLIN-DEPENDENT KINASE 2 VIA UBIQUITIN PROTEASOME PATHWAY” (NIKANG THERAPEUTICS, INC., priority 2022, published 2026).

How the values were obtained:
CDK2 [1] = molecular target: T1, CDK2 (Homo sapiens, UniProt P24941); assay: Inhibition of CDK2: phospho-Rb (S807/811) HTRF measurement in OVCAR3 cells; assay type: cell-based; conditions: 24 h compound treatment, read-out: pRb (nM), IC50 in pRB(S807/811) assay
T1 construct: High-Throughput Measurement of Cellular Endogenous CDK2; endogenous in cells; host or cells: OVCAR3

CDK2 [2] = molecular target: T1, CDK2; assay: CDK2 HTRF assay: cellular endogenous CDK2 level in OVCAR3 cells; assay type: cell-based; conditions: 24 hours compound treatment, read-out: DC50 (half maximal degradation concentration of CDK2)
Protocol: Effects of compounds on cellular CDK2 level can be monitored by a high-throughput HTRF assay or traditional Western Blot assay.
To determine half maximal degradation concentration (DC50) values of compounds, cellular CDK2 level was measured in 96-well format using HTRF total CDK2 cellular kit (Cat #64CDK2TPEG) from Cisbio.
On Day 1, OVCAR3 cells were seeded into 96-well tissue-culture treated plates at 20,000 cells/well in 200 μL and incubated overnight at 37° C. in CO2 atmosphere. On Day 2 cells were treated with compounds at concentration ranging from 0.3 to 10,000 nM using HP D300 digital dispenser. 24 hours after compound treatment, cell culture media was removed by flicking the plate and tapping the plate against clean paper towel. Immediately 30 μL 1× lysis buffer was supplemented from the kit and the plate was incubated at room temperature on shaker for 30 min. After homogenization by pipetting up and down, 8 μL cell lysate from 96-well cell culture plate was transferred to 384-well small volume white detection plate. 2 μL premixed detection solution was added and the plate was covered with sealer. To prepare the detection solution, d2 conjugated-CDK2 antibody and Eu-cryptate conjugated CDK2 antibody were diluted into detection buffer following manufacturer's instruction. Detection plates were incubated overnight at room temperature and read on ClarioStar (BMG Labtech) in TR-FRET mode (665 nM and 620 nM). The TR-FRET ratio (665 nM/620 nM) was plotted against the compound concentration and normalized to DMSO controls. Half maximal degradation concentration (DC50) values were calculated with a four-parameter logistic fit using GraphPad Prism (version 8; La Jolla, CA).
In the table below, A indicates a DC50 of less than 0.1 μM; B indicates a DC50 of greater than or equal to 0.1 μM but less than 0.5 μM; C indicates a DC50 of greater than or equal to 0.5 μM but less than 1 μM; and D indicates a DC50 of greater than or equal to 1 μM but less than 10 μM.

Row | Compound | IC50 (CDK2 [1]) [nM] | DC50 (CDK2 [2]) [nM]
1 | O=C1CCN(c2ccc(N3CCN(Cc4cccc(S(=O)(=O)N5CCC(Nc6ncc(C(F)(F)F)c(-c7cnn(CC(F)(F)F)c7)n6)CC5)c4)CC3)cc2)C(=O)N1 [Example 25, 1-(4-(4-(3-((4-((4-(1-(2,2,2-trifluoro-ethyl)-1H-pyrazol-4-yl)-5-(trifluoro-methyl)pyrimidin-2-yl)amino)-piperidin-1-yl)sulfonyl)benzyl)piperazin-1-yl)-phenyl)dihydro-pyrimidine-2,4(1H,3H)-dione] | < 100 | < 100
2 | Cn1c(S(=O)(=O)N2CCC(Nc3ncc(C(F)(F)F)c(-c4cnn(CC(F)(F)F)c4)n3)CC2)cnc1CN1CCN(c2ccc(N3CCC(=O)NC3=O)cc2)CC1 [Example 26, 1-(4-(4-((1-methyl-5-((4-((4-(1-(2,2,2-trifluoroethyl)-1H-pyrazol-4-yl)-5-(trifluoromethyl)pyrimidin-2-yl)amino)-piperidin-1-yl)sulfonyl)-1H-imidazol-2-yl)methyl)piperazin-1-yl)phenyl)dihydro-pyrimidine-2,4(1H,3H)-dione] | 100 to 500 | < 100
3 | Cn1c(S(=O)(=O)N2CCC(Nc3ncc(C(F)(F)F)c(-c4cnn(CC(F)(F)F)c4)n3)CC2)cnc1CN1CCN(c2cc3c(cc2F)C(=O)N(C2CCC(=O)NC2=O)C3=O)CC1 (centres unmarked) [Example 30, 2-(2,6-dioxopiperidin-3-yl)-5-fluoro-6-(4-((1-methyl-5-((4-((4-(1-(2,2,2-trifluoroethyl)-1H-pyrazol-4-yl)-5-(trifluoromethyl)pyrimidin-2-yl)amino)-piperidin-1-yl)sulfonyl)-1H-imidazol-2-yl)methyl)piperazin-1-yl)isoindoline-1,3-dione] | 100 to 500 | < 100

Now from value to molecule:

Row | IC50 (CDK2 [1]) [nM] | DC50 (CDK2 [2]) [nM] | Compound
4 | < 100 | < 100 | O=C1CCC(N2C(=O)c3cc(F)c(N4CC5(CN(Cc6cccc(S(=O)(=O)N7CCC(Nc8ncc(C(F)(F)F)c(-c9cnn(CC(F)(F)F)c9)n8)CC7)c6)C5)C4)cc3C2=O)C(=O)N1 (centres unmarked) [Example 31, 2-(2,6-dioxopiperidin-3-yl)-5-fluoro-6-(6-(3-((4-((4-(1-(2,2,2-trifluoroethyl)-1H-pyrazol-4-yl)-5-(trifluoromethyl)-pyrimidin-2-yl)amino)piperidin-1-yl)-sulfonyl)benzyl)-2,6-diazaspiro[3.3]-heptan-2-yl)isoindoline-1,3-dione]
5 | < 100 | < 100 | Cn1cc(-c2nc(NC3CCN(S(=O)(=O)c4cccc(CN5CCC(c6ccc7c(N8CCC(=O)NC8=O)nn(C)c7c6)CC5)c4)CC3)ncc2C(F)(F)F)cn1 [Example 33, 1-(1-methyl-6-(1-(3-((4-((4-(1-methyl-1H-pyrazol-4-yl)-5-(trifluoromethyl)-pyrimidin-2-yl)amino)piperidin-1-yl)-sulfonyl)benzyl)piperidin-4-yl)-1H-indazol-3-yl)dihydropyrimidine-2,4(1H,3H)-dione]
6 | 100 to 500 | < 100 | C[C@@H]1CN(S(=O)(=O)c2cccc(CN3CCC(c4ccc5c(N6CCC(=O)NC6=O)nn(C)c5c4)CC3)c2)CC[C@@H]1Nc1ncc(C(F)(F)F)c(-c2cnn(CC(F)(F)F)c2)n1 [Example 34, 1-(1-methyl-6-(1-(3-(((3R,4S)-3-methyl-4-((4-(1-(2,2,2-trifluoroethyl)-1H-pyrazol-4-yl)-5-(trifluoromethyl)-pyrimidin-2-yl)amino)piperidin-1-yl)-sulfonyl)benzyl)piperidin-4-yl)-1H-indazol-3-yl)dihydropyrimidine-2,4(1H,3H)-dione]
7 | < 100 | < 100 | O=C1CCN(c2ccc(N3CCN(Cc4cccc(S(=O)(=O)N5CCC(Nc6ncc(C(F)(F)F)c(-c7cnn(CC(F)(F)F)c7)n6)CC5)c4)CC3)nc2)C(=O)N1 [Example 41, 1-(6-(4-(3-((4-((4-(1-(2,2,2-trifluoro-ethyl)-1H-pyrazol-4-yl)-5-(trifluoro-methyl)pyrimidin-2-yl)amino)-piperidin-1-yl)sulfonyl)benzyl)-piperazin-1-yl)pyridin-3-yl)dihydro-pyrimidine-2,4(1H,3H)-dione]
